In brackets after ≈: the same amount, converted by molar mass. Like-named read-outs stand apart in the source and are kept apart here.
Experiment: Solubility test in water and FaSSIF
Assay type: physicochemical
Conditions: 37° C., up to 24 hours
[1] = thermodynamic from solid, FaSSIF (pH 6.5), read-out: Solubility
[2] = thermodynamic from solid, Water, read-out: Solubility

`C[C@@H](N)C(=O)N[C@H](C)C(=O)O[C@H]1C[C@@H]2[C@]3(CC[C@]4(C)[C@@H]([C@]5(C)CC[C@@H](C(C)(C)O)O5)[C@@H](O)C[C@@]24C)C[C@@]32CCC(F)(F)C(C)(C)[C@H]12.I` [Compound 2-35, (R)-1-(((R)-1-(((2aR,3R,4S,5aS,5bS,7S,7aR,11aR,12aS)-9,9-difluoro-4-hydroxy-3-((2 S,5S)-5-(2-hydroxypropan-2-yl)-2-methyltetrahydrofuran-2-yl)-2a,5a,8,8-tetramethyltetradecahydro-1H,12H-cyclopenta[a]cyclopropa[e]phenanthren-7-yl)oxy)-1-oxopropan-2-yl)amino)-1-oxopropan-2-aminium iodide] gave a Solubility (FaSSIF (pH 6.5)) of 3140 µg/mL and a Solubility (Water) of 1350 µg/mL.
Compound `CC(C)(O)[C@@H]1CC[C@@](C)([C@H]2[C@@H](O)C[C@@]3(C)[C@@H]4C[C@H](OC(=O)[C@@H](N)CS)[C@H]5C(C)(C)C(F)(F)CC[C@@]56C[C@@]46CC[C@]23C)O1.Cl` [Compound 2-25, (R)-1-(((2aR,3R,4S,5aS,5bS,7S,7aR,11aR,12aS)-9,9-difluoro-4-hydroxy-3-((2S,5S)-5-(2-hydroxypropan-2-yl)-2-methyltetrahydrofuran-2-yl)-2a,5a,8,8-tetramethyltetradecahydro-1H,12H-cyclopenta[a]cyclopropa[e]phenanthren-7-yl)oxy)-3-mercapto-1-oxopropan-2-aminium Chloride] has a Solubility (FaSSIF (pH 6.5)) of 3350 µg/mL and a Solubility (Water) of 1020 µg/mL.
Work on `CC(C)(O)[C@@H]1CC[C@@](C)([C@H]2[C@@H](O)C[C@@]3(C)[C@@H]4C[C@H](OC(=O)COCCOCCOCCN)[C@H]5C(C)(C)C(F)(F)CC[C@@]56C[C@@]46CC[C@]23C)O1.O=C(O)C(F)(F)F` [Compound 2-8, 2-(2-(2-(2-(((2aR,3R,4S,5aS,5bS,7S,7aR,11aR,12aS)-9,9-difluoro-4-hydroxy-3-((2S,5S)-5-(2-hydroxypropan-2-yl)-2-methyltetrahydrofuran-2-yl)-2a,5a,8,8-tetramethyltetradecahydro-1H,12H-cyclopenta[a]cyclopropa[e]phenanthren-7-yl)oxy)-2-oxoethoxy)ethoxy)ethoxy)ethan-1-aminium Trifluoroacetate] yielded a Solubility (FaSSIF (pH 6.5)) of 4020 µg/mL and a Solubility (Water) of 2050 µg/mL.
For `CC(C)(O)[C@@H]1CC[C@@](C)([C@H]2[C@@H](O)C[C@@]3(C)[C@@H]4C[C@H](OC(=O)[C@@H](N)Cc5c[nH]cn5)[C@H]5C(C)(C)C(F)(F)CC[C@@]56C[C@@]46CC[C@]23C)O1.O=S(=O)(O)O` [Compound 2-22, (2aR,3R,4S,5aS,5bS,7S,7aR,11aR,12aS)-9,9-difluoro-4-hydroxy-3-((2S,5S)-5-(2-hydroxypropan-2-yl)-2-methyltetrahydrofuran-2-yl)-2a,5a,8,8-tetramethyltetradecahydro-1H,12H-cyclopenta[a]cyclopropa[e]phenanthren-7-yl-L-histidinate Sulfate], the Solubility (FaSSIF (pH 6.5)) was 1250 µg/mL and the Solubility (Water) was 700 µg/mL.
For `CC(C)(O)C1CCC(C)(C2C(O)CC3(C)C4CC(OP(=O)([O-])O)C5C(C)(C)C(F)(F)CCC56CC46CCC23C)O1.[Na+]` [Compound 3-1, Monosodium Mono((2aR,3R,4S,5aS,5bS,7S,7aR,11aR,12aS)-9,9-difluoro-4-hydroxy-3-((2S,5S)-5-(2-hydroxypropan-2-yl)-2-methyltetrahydrofuran-2-yl)-2a,5a,8,8-tetramethyltetradecahydro-1H,12H-cyclopenta[a]cyclopropa[e]phenanthren-7-yl phosphate)], the Solubility (FaSSIF (pH 6.5)) was 15800 µg/mL and the Solubility (Water) was 11500 µg/mL.
Work on `Br.CC(C)(O)C1CCC(C)(C2C(O)CC3(C)C4CC(OC(=O)CNC(=O)C(N)CS)C5C(C)(C)C(F)(F)CCC56CC46CCC23C)O1` [Compound 2-32, (R)-1-((2-(((2aR,3R,4S,5aS,5bS,7S,7aR,11aR,12aS)-9,9-difluoro-4-hydroxy-3-((2S,5S)-5-(2-hydroxypropan-2-yl)-2-methyltetrahydrofuran-2-yl)-2a,5a,8,8-tetramethyltetradecahydro-1H,12H-cyclopenta[a]cyclopropa[e]phenanthren-7-yl)oxy)-2-oxoethyl)amino)-3-mercapto-1-oxopropan-2-aminium bromide] yielded a Solubility (FaSSIF (pH 6.5)) of 4960 µg/mL.
`CC(C)(O)C1CCC(C)(C2C(O)CC3(C)C4CC(OC(=O)C5CCNCC5)C5C(C)(C)C(F)(F)CCC56CC46CCC23C)O1.Cl` [Compound 2-2, 4-((((2aR,3R,4S,5aS,5bS,7S,7aR,11aR,12aS)-9,9-difluoro-4-hydroxy-3-((2S,5S)-5-(2-hydroxypropan-2-yl)-2-methyltetrahydrofuran-2-yl)-2a,5a,8,8-tetramethyltetradecahydro-1H,12H-cyclopenta[a]cyclopropa[e]phenanthren-7-yl)oxy)carbonyl)piperidin-1-ium Chloride] gave a Solubility (FaSSIF (pH 6.5)) of 1660 µg/mL and a Solubility (Water) of 880 µg/mL.
`CC(C)(O)[C@@H]1CC[C@@](C)([C@H]2[C@@H](O)C[C@@]3(C)[C@@H]4C[C@H](OC(=O)[C@@H](N)CC(=O)O)[C@H]5C(C)(C)C(F)(F)CC[C@@]56C[C@@]46CC[C@]23C)O1` [Compound 2-24, (S)-3-carboxy-1-(((2aR,3R,4S,5aS,5bS,7S,7aR,11aR,12aS)-9,9-difluoro-4-hydroxy-3-((2S,5S)-5-(2-hydroxypropan-2-yl)-2-methyltetrahydrofuran-2-yl)-2a,5a,8,8-tetramethyltetradecahydro-1H,12H-cyclopenta[a]cyclopropa[e]phenanthren-7-yl)oxy)-1-oxopropan-2-aminium 2,2,2-trifluoroacetate] gave a Solubility [1] of 5450 µg/mL (≈ 8710 µM) and a Solubility [2] of 1500 µg/mL (≈ 2400 µM).
`CC(NC(=O)C(N)CC(N)=O)C(=O)OC1CC2C3(C)CC(O)C(C4(C)CCC(C(C)(C)O)O4)C3(C)CCC23CC32CCC(F)(F)C(C)(C)C12.Cl` [Compound 2-34, (S)-4-amino-1-(((S)-1-(((2aR,3R,4S,5aS,5bS,7S,7aR,11aR,12aS)-9,9-difluoro-4-hydroxy-3-((2S,5S)-5-(2-hydroxypropan-2-yl)-2-methyltetrahydrofuran-2-yl)-2a,5a,8,8-tetramethyltetradecahydro-1H,12H-cyclopenta[a]cyclopropa[e]phenanthren-7-yl)oxy)-1-oxopropan-2-yl)amino)-1,4-di oxobutan-2-aminium chloride] showed a Solubility (FaSSIF (pH 6.5)) of 3200 µg/mL and a Solubility (Water) of 1180 µg/mL.
`CC(C)(O)[C@@H]1CC[C@@](C)([C@H]2[C@@H](O)C[C@@]3(C)[C@@H]4C[C@H](OC(=O)COCCOCCOCCOCCOCCO)[C@H]5C(C)(C)C(F)(F)CC[C@@]56C[C@@]46CC[C@]23C)O1` [Compound 2-14, (2aR,3R,4S,5aS,5bS,7S,7aR,11aR,12aS)-9,9-difluoro-4-hydroxy-3-((2S,5S)-5-(2-hydroxypropan-2-yl)-2-methyltetrahydrofuran-2-yl)-2a,5a,8,8-tetramethyltetradecahydro-1H,12H-cyclopenta[a]cyclopropa[e]phenanthren-7-yl-17-hydroxy-3,6,9,12,15-pentaoxaheptadecanoate] gave a Solubility [1] of 2310 µg/mL (≈ 2930 µM) and a Solubility [2] of 1230 µg/mL (≈ 1560 µM).

Reference: patent US20220177511A1, “SERIES OF HALOGENATED TETRACYCLIC TRITERPENE DERIVATIVES AND THEIR PREPARATION AND APPLICATION” (SHANGHAI KING-X BIOTECH CO., LTD, priority 2019, published 2022)
